Assay results taken from US11931347B2, “Method of screening for agents for differentiating stem cells” (MINERVA BIOTECHNOLOGIES CORPORATION, priority 2015, dated 2024).

What was measured:
[1] = system: human naïve state stem cells; assay: stem cell drug screening assay on naïve state stem cells; format: cell-based; details: 6 uM, 3 days
Description: The stem cell screening assay, was performed in both the presence and absence of the stem cell growth factors: NME7AB for growing naïve stem cells or FGF for growing primed stem cells. If the cognate growth factor was present, then the biological or small molecule would have to compete away the growth factor to get an effect. Therefore, we expected to see more of an effect when the growth factor, FGF for primed stem cells or NME7AB or NME1 dimers for naïve stem cells, was absent. The effect of the compounds on stem cells was visually determined and compounds were ranked 0-4, with 4 being the greatest effect and 0 being no observable effect. The major effect that was observed was a change from pluripotent stem cell morphology, which is a cobblestone pattern of small round cells with a large nucleus to cytoplasm ratio, to that of differentiating stem cells, which are elongated, large and flattened cells with a smaller nucleus to cytoplasm ratio. […] The compounds were added to a final concentration of 6 uM to either naïve state stem cells or primed state stem cells. In this particular case, the naïve state stem cells were maintained in a naïve state by culturing in a media containing NME7AB or NME1 dimers. However, other methods such as 2i and 5i (Silva et al., 2008, Nichols and Smith, 2009, Theunissen et al., 2014)] can be used to maintain stem cells in a more naïve state. In this case primed state stem cells were cultured in bFGF over a layer of MEFs, although it is known that any bFGF containing media will maintain stem cells in the primed state.
Stem cells whether embryonic or induced pluripotent stem (iPS) cells were cultured in a minimal, serum-free media that contained human recombinant NME7AB at a concentration of 2-32 nM wherein 4-8 nM is preferred and 4 nM is more preferred. To facilitate surface attachment, cell culture plates were coated with an anti-MUC1* monoclonal antibody called MN-C3 or C3 or MN-C8 at a concentration of 2-100 ug/mL coating solution, wherein 3-50 ug/mL is preferred and 6-12.5 ug/mL is more preferred. In these experiments, 12.5 ug/mL of MN-C3 was used. Antibody coated plates were incubated at 4 degrees C. overnight prior to plating stem cells. A Rho kinase I inhibitor was added to enhance surface attachment. In some cases, NME7AB was substituted with human recombinant NME1 dimers which also induce stem cells to revert to a naïve-like state.
Human naïve state and primed stem cells were cultured in parallel for at least 5 passages to guarantee normal differentiation-free growth. The stem cells were plated in 12-well cell culture plates with 50,000 cells per well. Cells were cultured in their respective media, either bFGF media or NME7AB media for 24 hours. Media was then removed and replaced with media devoid of bFGF or NME7AB, when indicated. Agents being tested for their ability to induce differentiation of naïve stem cells were added to the media at the concentrations indicated. After 72 hours, photographs were taken see FIGS. 1-10.
Human naïve state and primed stem cells were cultured in parallel for at least 5 passages to guarantee normal differentiation-free growth. The stem cells were plated in 12-well cell culture plates with 50,000 cells per well. Cells were cultured in their respective media, either bFGF media or NME7AB media for 24 hours. Media was then removed and replaced with media devoid of bFGF or NME7AB. […] Media was changed after 48 hours and replaced with fresh media containing the BRD4 inhibitors. After 4 days the experiment was stopped. Photographs were taken and cell pellets collected for further analysis, see FIGS. 11-16.

[2] = system: MUC1* positive cancer cells; assay: cancer cell growth in vitro (previously shown); format: cell-based
[3] = system: E-cadherin, fibronectin, vimentin and NF1 expression in naïve stem cells; assay: RT-PCR of differentiation markers in treated naïve stem cells; format: cell-based, human
Description: FIG. 161 is a graph of RT-PCR measurement of naïve stem cells that have been treated with compounds of the invention. The genes whose expression is measured are E-cadherin, which goes […] as cells undergo epithelial to mesenchymal transition, fibronectin and vimentin, which both increase as stem cells initiate differentiation and NF1, which is one of the first genes to increase when stem cells begin to differentiate down the neural lineage. […] E-cadherin is the opposite; it […] as cells become cancerous. […] Expression of metastatic marker E-cadherin was reduced and expression of differentiation markers fibronectin, vimentin and NF1 were increased (FIG. 162-FIG. 163). Novel compounds of the invention are highly specific. […] Although we discovered that NME1 dimers, NME7AB and NME7-X1 are all activating ligands of the MUC1* growth factor receptor and they bind to its extracellular domain, we have developed ample evidence that both NME7AB and NME7-X1 have other binding partners and can exert oncogenic effects, independent of MUC1*.

[4] = system: T47D breast cancer cells; assay: cancer cell proliferation assay (Calcein live cell stain); format: cell-based, human; details: live cell Calcein stain, 96 hours (FIG. 113)
Description: These analogs of MN1194 and 1186 were also tested in a cell growth assay (FIGS. 107A1-107H6 and FIG. 108A1-108H6, respectively). In this experiment, both parent compound and analogs thereof were added to normal cell culture media to final concentrations of 40 uM, 20 uM, 10 uM, 5 uM or 2.5 uM. For comparison, previously known cancer cell migration inhibitors SU11274 and MN1204 were included in the same experiment. […] Relative cell proliferation is quantified on a standard plate reader that reads the fluorescence of the Calcein that is taken up by live cells.
Small molecule inhibition of cancer cell proliferation studies were also performed on several cancer sub-types. […] The small molecules of the invention had the most robust effect on T47D breast cancer cells, which are highly positive for MUC1* growth factor receptor, and its activating ligands NME7AB and NME7-X1.
For the cancer cell proliferation experiment cancer cells were plated at constant densities (6000 cells/well) into a 96-well White-walled/Clear-bottom Tissue Culture Treated plate (Corning Incorporated, Big Flats, N.Y.). Small molecule analogs are added at T=24 hours in media with 2% FBS. Following the addition of the small molecules, the cells remain untouched for 120 hours with visual confirmations/inspections at 24, 48, 72 and 96 hours post plating. At the 120 hour mark a calcein fluorescence assay (Thermo Fisher Scientific, Waltham, Mass.) is performed on the plate. Calcein fluorescence (final concentration 0.5 uM) is used to assess cell viability. Cancer cell fluorescence is measured in a TECAN SAFIRE^2 spectrophotometer plate reader. The plate is then imaged using an Olympus IX71 fluorescence imaging microscope and montage of the resulting images are assembled using ImageJ.

[5] = system: SK-OV-3 MUC1* positive ovarian cancer cells; assay: cancer cell proliferation assay (Calcein); format: cell-based; details: 96 hours (FIG. 112)
Description: Small molecule inhibition of cancer cell proliferation studies were also performed on several cancer sub-types. […] The small molecules of the invention had the most robust effect on T47D breast cancer cells, which are highly positive for MUC1* growth factor receptor, and its activating ligands NME7AB and NME7-X1. […] For the cancer cell proliferation experiment cancer cells were plated at constant densities (6000 cells/well) into a 96-well White-walled/Clear-bottom Tissue Culture Treated plate (Corning Incorporated, Big Flats, N.Y.). Small molecule analogs are added at T=24 hours in media with 2% FBS. […] […] Calcein fluorescence (final concentration 0.5 uM) is used to assess cell viability. Cancer cell fluorescence is measured in a TECAN SAFIRE^2 spectrophotometer plate reader. The plate is then imaged using an Olympus IX71 fluorescence imaging microscope and montage of the resulting images are assembled using ImageJ.

[6] = system: OV-90 MUC1* negative ovarian cancer cells; assay: cancer cell proliferation assay (Calcein); format: cell-based; details: 96 hours (FIG. 114)
Description: Small molecule inhibition of cancer cell proliferation studies were also performed on several cancer sub-types. […] The small molecules of the invention had the most robust effect on T47D breast cancer cells, which are highly positive for MUC1* growth factor receptor, and its activating ligands NME7AB and NME7-X1. […] For the cancer cell proliferation experiment cancer cells were plated at constant densities (6000 cells/well) into a 96-well White-walled/Clear-bottom Tissue Culture Treated plate (Corning Incorporated, Big Flats, N.Y.). Small molecule analogs are added at T=24 hours in media with 2% FBS. Following the addition of the small molecules, the cells remain untouched for 120 hours with visual confirmations/inspections at 24, 48, 72 and 96 hours post plating. At the 120 hour mark a calcein fluorescence assay (Thermo Fisher Scientific, Waltham, Mass.) is performed on the plate. Calcein fluorescence (final concentration 0.5 uM) is used to assess cell viability. Cancer cell fluorescence is measured in a TECAN SAFIRE^2 spectrophotometer plate reader. The plate is then imaged using an Olympus IX71 fluorescence imaging microscope and montage of the resulting images are assembled using ImageJ.

[7] = system: NME7AB-induced transition of regular cancer cells to metastatic cancer cells; assay: transition of regular cancer cells to metastatic cancer cells (previously shown); format: cell-based

| Compound | effect on naïve stem cell pluripotency, growth or differentiation (visually determined) [1] | inhibition of cancer cell growth in vitro [2] | up-regulation of markers of differentiation in naïve stem cells (RT-PCR) [3] | inhibition of growth of T47D cells [4] | effect on growth of SK-OV-3 cells [5] | effect on growth of OV-90 cells [6] | inhibition of transition of regular cancer cells to metastatic cancer cells [7] |
| --- | --- | --- | --- | --- | --- | --- | --- |
| COC(=O)c1ccc(C2c3[nH]c4ccccc4c3CCN2C(=O)c2cccc(Cl)c2)cc1 (centres unmarked) [MN0642] | induced differentiation | inhibit the growth of cancer cells in vitro |  |  |  |  |  |
| Cc1[nH]c(/C=C2\C(=O)Nc3ccc(S(=O)(=O)N(C)c4cccc(Cl)c4)cc32)c(C)c1C(=O)N1CCN(C)CC1 [SU11274] |  |  | did not cause up-regulation of markers of differentiation | inhibited growth | no effect | neither the compounds of the invention nor JQ1 or SU11274 had any apparent effect |  |
| FLR peptide: synthetic peptide corresponding to the extracellular domain of MUC1*, PSMGFR, SEQ ID NO:3 (GTINVHDVETQFNQYKTEAASRYNLTISDVSVSDVPFPFSAQSGA; the extracellular domain of Native Primary Sequence of the MUC1 Growth Factor Receptor (nat-PSMGFR - an example of “PSMGFR”)) | induced differentiation |  |  |  |  |  | inhibit the transition of regular cancer cells to metastatic cancer cells |
